Experiment [1] deals with larva of Spodoptera litura. Description: Test against larva of Spodoptera litura (leaf dip, sweet potato leaves). Type of experiment: in vivo. The settings on record: 20 ppm concentration of effective component; third instar larvae on treated sweet potato leaves; after 7 days; 25° C. On the procedure:
Test against larva of Spodoptera litura
In order to make an appropriate formulation of an active compound 1 part by weight of the active compound was mixed with the above-mentioned amount of solvent containing the above-mentioned amount of emulsifier and the mixture was diluted with water to a prescribed concentration.
Leaves of sweet potato were soaked in the test agent diluted to a prescribed concentration with water, dried in the air and put in a dish of 9 cm diameter. 10 larvae of Spodoptera litura at the third instar were placed on the leaves and kept in a room at constant temperature of 25° C. After 2 and 4 days further leaves of sweet potato were added and after 7 days the number of dead larvae was counted and the rate of death was calculated.
In this test the results of 2 dishes at 1 section were averaged.

For experiment [2], the system named is larva of Cnaphalocrocis medinalis Guenee. As to the kind of experiment: Test against larva of Cnaphalocrocis medinalis Guenee (systemic, root uptake by paddy rice). Type of experiment: in vivo. The settings on record: 20 ppm concentration of effective component; rice root parts in diluted solution, foliage fed to second instar larvae; after 7 days; 25° C. The source says:
Test Against Larva of Cnaphalocrocis medinalis Guenee Root parts of paddy rice (variety: […]) cultivated to 4 to 5 leaf stage were put in a brown bottle filled with the diluted aqueous solution of the prescribed concentration of the active compound prepared in the same manner as in the above-mentioned Biological Test Example 1. Three days after the treatment with the agent, 1⁄3 amount of rice plant was collected and their foliage part was cut in 4 to 5 cm length, which were put in a dish with 9 cm diameter with a sheet of filter paper wetted with 2 mL of water. Five larvae of Cnaphalocrocis medinalis Guenee at the second instar were put in the dish which was placed in a room at constant temperature of 25° C. After 2 and 4 days, each rest (each 1⁄3 amount) of foliage parts of rice plant were cut in the same manner and added to the dish. After 7 days the number of dead larvae was counted and the rate of death was calculated. In this test the results of 2 dishes at 1 section were averaged.

The structures appear in SMILES notation.

`CSCC(C)(C)NC(=O)c1c(OS(C)(=O)=O)cccc1C(=O)Nc1ccc(Cl)c(Cl)c1Cl` [compound 24, N^2-[1,1-dimethyl-2-(methylthio)ethyl]-N^1-(2,3,4-trichlorophenyl)-3-methanesulfonyloxyphthalamide] showed a rate of death in experiment [1] of 100%.
As to `CSCC(C)NC(=O)c1c(OS(=O)(=O)C(F)(F)F)cccc1C(=O)Nc1ccc(C(F)(C(F)(F)F)C(F)(F)F)cc1C` (centres unmarked) [compound 21, N^1-(4-heptafluoroisopropyl-2-methylphenyl)-N^2-[1-methyl-2-(methylthio)ethyl]-3-trifluoromethanesulfonyloxyphthalamide], the rate of death in experiment [1] was determined as 100%.
For `Cc1cc(C(F)(C(F)(F)F)C(F)(F)F)ccc1NC(=O)c1cccc(OS(C)(=O)=O)c1C(=O)NC(C)C` [compound no. 1, N^1(4-heptafluoroisopropyl-2-methylphenyl)-N-2-isopropyl-3-methanesulfonyloxyphthalamide], the rate of death in experiment [2] and in experiment [1] was 100% each time.
For `CCS(=O)(=O)Oc1cccc(C(=O)Nc2ccc(C(F)(C(F)(F)F)C(F)(F)F)cc2C)c1C(=O)NC(C)CSC` (centres unmarked) [compound 14, N^1-(4-heptafluoroisopropyl-2-methylphenyl)-N^2-[1-methyl-2-(methylthio)ethyl]-3-ethanesulfonyloxyphthalamide], the rate of death in experiment [1] turned out to be 100%.
As for `Cc1cc(C(F)(C(F)(F)F)C(F)(F)F)ccc1NC(=O)c1cccc(OS(C)(=O)=O)c1C(=O)NC(C)(C)C[S+](C)[O-]` (centres unmarked) [compound 11, N^2-[1,1-dimethyl-2-(methylsulfinyl)ethyl]-N^1-(4-heptafluoroisopropyl-2-methylphenyl)-3-methanesulfonyloxyphthalamide], the rate of death in experiment [2] and in experiment [1] was 100% each time.
Turning to `CSCC(C)NC(=O)c1c(OS(C)(=O)=O)cccc1C(=O)Nc1ccc(C(F)(C(F)(F)F)C(F)(F)F)cc1C` (centres unmarked) [compound 7, N^1-(4-heptafluoroisopropyl-2-methylphenyl)-N^2-[1-methyl-2-(methylthio)-ethyl]-3-methanesulfonyloxyphthalamide], the rate of death in experiment [2] and in experiment [1] was 100% in each case.
As for `CCS(=O)(=O)Oc1cccc(C(=O)Nc2ccc(C(F)(C(F)(F)F)C(F)(F)F)cc2C)c1C(=O)NC(C)(C)CSC` [compound 17, N^2-[1,1-dimethyl-2-(methylthio)ethyl]-N^1-(4-heptafluoroisopropyl-2-methylphenyl)-3-ethanesulfonyloxyphthalamide], in experiment [1], the rate of death turned out to be 100%.
Regarding `Cc1cc(C(F)(C(F)(F)F)C(F)(F)F)ccc1NC(=O)c1cccc(OS(C)(=O)=O)c1C(=O)NC(C)(C)CS(C)(=O)=O` [compound 12, N^2-[1,1-dimethyl-2-(methylsulfonyl)ethyl]-N^1-(4-heptafluoroisopropyl-2-methylphenyl)-3-methanesulfonyloxyphthalamide], the rate of death in experiment [2] and in experiment [1] was 100% in each case.
As for `CSCC(C)(C)NC(=O)c1c(OS(C)(=O)=O)cccc1C(=O)Nc1ccc(C(F)(C(F)(F)F)C(F)(F)F)cc1C` [compound 10, N^2-[1,1-dimethyl-2-(methylthio)ethyl]-N^1-(4-heptafluoroisopropyl-2-methylphenyl)-3-methanesulfonyloxyphthalamide], the rate of death in experiment [2] and in experiment [1] was 100% in each case.
Regarding `CSCC(C)NC(=O)c1c(OS(C)(=O)=O)cccc1C(=O)Nc1ccc(OC(F)(F)F)cc1C` (centres unmarked) [compound 6, N^2-[1-methyl-2-(methylthio)ethyl]-N^1-(4-trifluoromethoxy-2-methylphenyl)-3-methanesulfonyloxyphthalamide], the rate of death in experiment [1] was determined as 100%.
For `CSCC(C)NC(=O)c1c(OS(C)(=O)=O)cccc1C(=O)Nc1ccc(C(F)(C(F)(F)F)C(F)(F)F)cc1` (centres unmarked) [compound 5, N^1-(4-heptafluoroisopropylphenyl)-N^2-[1-methyl-2-(methylthio)ethyl]-3-methanesulfonyloxyphthalamide], the rate of death in experiment [2] and in experiment [1] was 100% throughout.

The values are drawn from patent US7132455B2, “Phthalamide derivatives” (Bayer Cropscience AG, priority 2002, dated 2006).
